Source: paper PMC8975978, “Bioassay-guided isolation of cytotoxic constituents from the flowers of Aquilaria sinensis” (Natural Products and Bioprospecting, 2022)
Converted amounts (≈) assume the structure as drawn. Like-named read-outs stand apart in the source and are kept apart here.

What was measured:
[1] = system: human lung adenocarcinoma SPC-A-1 cells; assay: MTS cytotoxicity assay, SPC-A-1; type: cell-based; settings: read-out: IC50
Description: (§1) It had better inhibition against lung cancer cell lines than against other cancer cell lines (Table 1). Thus, the next bioactivity-guided separations were conducted according to the cytotoxicities of the fractions against lung cancer cell lines (A-549, NCI-H520, and SPC-A-1), as well as normal BEAS-2B cells and paclitaxel-resistant lung cancer A549/Taxol cells.
(§2) The cytotoxicity activities were evaluated by MTS assay as previously described.

[2] = system: human lung squamous cell carcinoma NCI-H520 cells; assay: MTS cytotoxicity assay, NCI-H520; type: cell-based; settings: read-out: IC50
Description: as §1, §2

[3] = system: human lung adenocarcinoma A549 cells; assay: MTS cytotoxicity assay, A549; type: cell-based; settings: read-out: IC50
Description: as §1, §2

[4] = system: human cervical cancer HeLa cells; assay: MTS cytotoxicity assay, HeLa; type: cell-based; settings: Homo sapiens; Table 1, HeLa; read-out: IC50
Description: as §1, §2

[5] = system: human neuroblastoma SH-SY5Y cells; assay: MTS cytotoxicity assay, SH-SY5Y; type: cell-based; settings: Homo sapiens; Table 1, SH-SY5Y; read-out: IC50
Description: as §1, §2

[6] = system: human ovarian carcinoma SK-OV-3 cells; assay: MTS cytotoxicity assay, SK-OV-3; type: cell-based; settings: Homo sapiens; Table 1, SK-OV-3; read-out: IC50
Description: as §1, §2

[7] = system: human T-cell leukemia MT4 cells; assay: MTS cytotoxicity assay, MT4; type: cell-based; settings: Homo sapiens; Table 1, MT4; read-out: IC50
Description: as §1, §2

[8] = system: human prostate cancer PC-3 cells; assay: MTS cytotoxicity assay, PC-3; type: cell-based; settings: Homo sapiens; Table 1, PC-3; read-out: IC50
Description: as §1, §2

[9] = system: human hepatoma SMMC-7721 cells; assay: MTS cytotoxicity assay, SMMC-7721; type: cell-based; settings: Homo sapiens; Table 1, SMMC-7721; read-out: IC50
[10] = system: human breast cancer MDA-MB-231 cells; assay: MTS cytotoxicity assay, MDA-MB-231; type: cell-based; settings: Homo sapiens; Table 1, MDA-MB-231; read-out: IC50
Description: as §1, §2

[11] = system: human small cell lung cancer NCI-H446 cells; assay: MTS cytotoxicity assay, NCI-H446; type: cell-based; settings: Homo sapiens; Table 1, NCI-H446; read-out: IC50
Description: as §1, §2

[12] = system: human large cell lung carcinoma NCI-H460 cells; assay: MTS cytotoxicity assay, NCI-H460; type: cell-based; settings: Homo sapiens; Table 1, NCI-H460; read-out: IC50
Description: as §1, §2

[13] = system: human colon cancer SW-480 cells; assay: MTS cytotoxicity assay, SW480; type: cell-based; settings: Homo sapiens; Table 1, SW480; read-out: IC50
Description: as §1, §2

[14] = system: human breast cancer MCF-7 cells; assay: MTS cytotoxicity assay, MCF-7; type: cell-based; settings: Homo sapiens, MCF7; Table 1, MCF-7; read-out: IC50
Description: as §1, §2

[15] = system: human leukemia HL-60 cells; assay: MTS cytotoxicity assay, HL-60; type: cell-based; settings: Homo sapiens; Table 1, HL-60; read-out: IC50
Description: as §1, §2

[16] = system: human colon cancer Caco2 cells; assay: MTS cytotoxicity assay, Caco2; type: cell-based; settings: Caco-2, Table 1, Caco2
[17] = system: human normal bronchial epithelial BEAS-2B cells; assay: MTS cytotoxicity assay, normal BEAS-2B; type: cell-based; settings: Homo sapiens, read-out: IC50
Description: as §1, §2

[18] = system: paclitaxel-resistant A549 (A549/Taxol) cells; assay: MTS cytotoxicity assay, A549/Taxol; type: cell-based, human; settings: read-out: IC50
Description: as §1, §2

[19] = system: SPC-A-1, NCI-H520, A549 and A549/Taxol cell lines; assay: MTS cytotoxicity assay, four tested lung cancer cell lines together; type: cell-based, human
Description: Thus, the next bioactivity-guided separations were conducted according to the cytotoxicities of the fractions against lung cancer cell lines (A-549, NCI-H520, and SPC-A-1), as well as normal BEAS-2B cells and paclitaxel-resistant lung cancer A549/Taxol cells.
Isolates 1–6 were evaluated for their cytotoxicities against SPC-A-1, NCI-H520, A549, A549/Taxol, and BEAS-2B cell lines (Table 5).
as §2

SK-MEL cells = system: SK-MEL cells; parameters: method as in PMID 28754541; settings: cited from earlier work
[20] = Homo sapiens, SPCA1, Table 5, SPC-A-1
[21] = Homo sapiens, Table 5, NCI-H520
[22] = BEAS-2B, Table 5, BEAS-2B normal cells
[23] = Homo sapiens, A549/Taxol, Table 5, A549/Taxol
[24] = Homo sapiens, A549, Table 5, A549

`CC(=O)O[C@H]1C(=O)[C@@]2(C)[C@H]([C@H](OC(=O)c3ccccc3)[C@]3(O)C[C@H](OC(=O)[C@H](O)[C@@H](NC(=O)c4ccccc4)c4ccccc4)C(C)=C1C3(C)C)[C@]1(OC(C)=O)CO[C@@H]1C[C@@H]2O` [Paclitaxel] showed an IC50 ([1]; Homo sapiens, SPCA1, Table 1, SPC-A-1) of under 0.007 µg/mL, an IC50 [1, 20] of under 0.008 µM and an IC50 ([2]; Homo sapiens, Table 1, NCI-H520) of under 0.007 µg/mL. For the same compound, the IC50 [2, 21] was under 0.008 µM, the IC50 ([3]; Homo sapiens, Table 1, A549) was under 0.007 µg/mL and the IC50 ([3]; Homo sapiens, Table 5, A549) was under 0.008 µM. It also gave an IC50 [4] of under 0.007 µg/mL, an IC50 [5] of 0.008 ± 0.001 µg/mL (≈ 9.37 nM) and an IC50 [6] of under 0.007 µg/mL. For the same compound, the IC50 [7] was under 0.008 µg/mL, the IC50 [8] was under 0.007 µg/mL and the IC50 [9] was 0.15 ± 0.02 µg/mL (≈ 176 nM). For the same compound, the IC50 [10] was under 0.007 µg/mL, the IC50 [11] was under 0.007 µg/mL and the IC50 [12] was under 0.007 µg/mL. It also gave an IC50 [13] of under 0.007 µg/mL, an IC50 [14] of under 0.007 µg/mL and an IC50 [15] of under 0.007 µg/mL. The IC50 [16] was 0.02 ± 0.02 µg/mL (≈ 23.4 nM), the IC50 ([17]; BEAS-2B, Table 1, BEAS-2B normal cells) was 3.66 ± 0.3 µg/mL and the IC50 ([17]; BEAS-2B, Table 2, BEAS-2B normal cells) was 1.85 ± 0.19 µg/mL. It also gave an IC50 ([17]; BEAS-2B, Table 3, BEAS-2B normal cells) of 2.04 ± 0.11 µg/mL, an IC50 ([17]; BEAS-2B, Table 4, BEAS-2B normal cells) of 1.94 ± 0.11 µg/mL and an IC50 [17, 22] of over 5 µM. It also gave an IC50 ([18]; Homo sapiens, A549/Taxol, Table 2, A549/Taxol) of 0.54 ± 0.09 µg/mL, an IC50 ([18]; Homo sapiens, A549/Taxol, Table 3, A549/Taxol) of 1.45 ± 0.12 µg/mL and an IC50 ([18]; Homo sapiens, A549/Taxol, Table 4, A549/Taxol) of 0.96 ± 0.05 µg/mL. The IC50 [18, 23] was 1.8 ± 0.13 µM.

Work on `COc1ccc(CCc2cc(=O)c3cc(OC)c(O)cc3o2)cc1` [Compound 6, 7-hydroxy-6-methoxy-2-[2-(4-methoxyphenyl)ethyl]-4H-1-benzopyran-4-one] yielded an IC50 [1, 20] of 1.13 ± 0.03 µM, an IC50 [2, 21] of 1.84 ± 0.16 µM and an IC50 ([3]; Homo sapiens, Table 5, A549) of 1.52 ± 0.06 µM. It also gave an IC50 [17, 22] of over 40 µM and an IC50 [18, 23] of 0.91 ± 0.01 µM.

For `CC(=O)OC(C)(C)CCC(=O)[C@](C)(O)[C@H]1[C@H](O)C[C@@]2(C)[C@@H]3CC=C4[C@@H](C=C(O)C(=O)C4(C)C)[C@]3(C)C(=O)C[C@]12C` [Compound 2, 23,24-dihydrocucurbitacin E], the IC50 [1, 20] was over 40 µM, the IC50 ([2]; Homo sapiens, NCI-H520, Table 5, NCI-H520) was over 40 µM and the IC50 [3, 24] was over 40 µM. The IC50 ([17]; Table 5, BEAS-2B normal cells) was over 40 µM, the IC50 [18, 23] was over 40 µM and the IC50 ([19]; four tested cancer cell lines taken together (SPC-A-1, NCI-H520, A549, A549/Taxol)) was “inactive”.

`CC(=O)OC(C)(C)/C=C/C(=O)[C@](C)(O)[C@H]1[C@H](O)C[C@@]2(C)[C@@H]3CC=C4[C@@H](C=C(O)C(=O)C4(C)C)[C@]3(C)C(=O)C[C@]12C` [Compound 3, cucurbitacin E] gave an IC50 ([1]; Table 5, SPC-A-1, listed as Cucurbitacin E) of at most 0.02 µM, an IC50 ([1]; Table 5, SPC-A-1) of 0.005 µM and an IC50 ([2]; Table 5, NCI-H520, listed as Cucurbitacin E) of at most 0.02 µM. For the same compound, the IC50 ([2]; Table 5, NCI-H520) was 0.001 µM, the IC50 [3, 24] was at most 0.02 µM and the IC50 ([3]; Table 5, A549) was 0.02 µM. The IC50 ([17]; Table 5, BEAS-2B normal cells) was 3.46 ± 0.13 µM, the IC50 ([18]; Table 5, A549/Taxol, listed as Cucurbitacin E) was at most 0.02 µM and the IC50 ([18]; Table 5, A549/Taxol) was 0.002 µM. For the same compound, the IC50 ([19]; Homo sapiens) was at most 0.03 µM.

For aquilaside C, the IC50 (SK-MEL cells) is listed as 12 µM.
